From US5228957A, “Separation of methyl T-butyl ether from close boiling C5 hydrocarbons by extractive distillation” (priority 1993, dated 1993)
Counter-ions that a name gives are not always drawn. Like-named read-outs stand apart in the source and are kept apart here.

Key:
Type in all cases: physicochemical
[1] = Extractive distillation agent separating methyl t-butyl ether from n-pentane-cyclopentane mixtures (vapor-liquid equilibrium still)
[2] = Extractive distillation agent separating methyl t-butyl ether from 1-pentene (vapor-liquid equilibrium still)
[3] = Extractive distillation agent separating methyl t-butyl ether from cyclopentane (vapor-liquid equilibrium still); conditions: cyclopentane to methyl t-butyl ether, with agent
Source text: The data in Tables 2-6 was obtained in a vapor-liquid equilibrium still.

[4] = Relative volatility of methyl t-butyl ether from close boiling hydrocarbons, no agent (vapor-liquid equilibrium still); conditions: hydrocarbon to methyl t-butyl ether
Source text: I have discovered that certain organic compounds will effectively increase the relative volatility between methyl t-butyl ether and close boiling hydrocarbons when employed as the agent in extractive distillation. The data in Tables 2-6 was obtained in a vapor-liquid equilibrium still.

[5] = cyclopentane to methyl t-butyl ether, n-pentane-cyclopentane mixture, with agent
[6] = n-pentane to methyl t-butyl ether, n-pentane-cyclopentane mixture, with agent
[7] = 1-pentene to methyl t-butyl ether, with agent

| Compound | Relative Volatility CyP/MTBE [1, 5] | Relative Volatility Pnt/MTBE [1, 6] | also measured |
| --- | --- | --- | --- |
| COCC(C)OC(C)=O (stereo not shown) [1-Methoxy-2-propanol acetate] | 1.9 | 3.3 | Relative Volatility [2, 7]: 3.5 |
| CN1CCCC1=O [1-Methyl-2-pyrrolidinone] | 1.8 | 3.9 | Relative Volatility [3]: 1.8 |
| CCC[N+](=O)[O-] [1-Nitropropane] | 2.8 | 5.2 | – |
| C=CCCC [1-Pentene] | – | – | Relative Volatility [4]: 1.7; Relative Volatility ([4]; listed as 1-pentene): less than 1.7 |
| CC(=O)CC(C)=O [2,4-Pentanedione] | 1.9 | 3.4 | – |
| CC(C)[N+](=O)[O-] [2-Nitropropane] | 2.2 | 3.8 | – |
| CC(=O)c1ccccc1 [Acetophenone] | 1.7 | 1.7 | Relative Volatility [3]: 1.6 |
| C1CCCC1 [Cyclopentane] | – | – | Relative Volatility [4]: 1.55; Relative Volatility ([4]; listed as cyclopentane): less than 1.7 |
| CCOC(=O)OCC [Diethyl carbonate] | 1.8 | 3.1 | – |
| CCOC(=O)/C=C\C(=O)OCC [Diethyl maleate] | 1.8 | 3.4 | – |
| CCOC(=O)CC(=O)OCC [Diethyl malonate] | 2.0 | 3.7 | Relative Volatility [2, 7]: 3.1 |
| CC(C)CC(=O)CC(C)C [Diisobutyl ketone] | 1.5 | 2.5 | – |
| CN(C)C=O [Dimethylformamide] | – | – | Relative Volatility [3]: 2.0; Relative Volatility CyP/MTBE [1]: 2.3; Relative Volatility Pnt/MTBE [1]: 4.7; Relative Volatility [2]: 3.0 |
| C[S+](C)[O-] [Dimethylsulfoxide] | 2.7 | 2.8 | Relative Volatility [3]: 1.8; Relative Volatility [2, 7]: 3.9 |
| CCOC(C)=O [Ethyl acetate] | 1.8 | 2.9 | – |
| CCOC(=O)CC(C)=O [Ethyl acetoacetate] | 1.9 | 4.2 | – |

| Compound | Relative Volatility CyP/MTBE [1, 5] | Relative Volatility Pnt/MTBE [1, 6] | also measured |
| --- | --- | --- | --- |
| CCOC(=O)CC(C)C [Ethyl isovalerate] | 1.5 | 2.5 | – |
| CC(=O)OCCOC(C)=O [Ethylene glycol diacetate] | 1.8 | 3.3 | Relative Volatility [2, 7]: 5.5 |
| COCCO [Ethylene glycol methyl ether] | – | – | Relative Volatility [2]: 3.6 |
| CC1=CC(=O)CC(C)(C)C1 [Isophorone] | 1.5 | 2.8 | – |
| CC(=O)OC(C)C [Isopropyl acetate] | 1.8 | 3.1 | – |
| CC(=O)CCC(C)C [Methyl isoamyl ketone] | 1.7 | 2.8 | Relative Volatility [2, 7]: 2.6 |
| COC(=O)c1ccccc1O [Methyl salicylate] | 1.6 | 1.9 | – |
| CC[N+](=O)[O-] [Nitroethane] | – | – | Relative Volatility CyP/MTBE [1]: 2.9; Relative Volatility Pnt/MTBE [1]: 5.2; Relative Volatility [2]: 3.0 |
| C[N+](=O)[O-] [Nitromethane] | – | – | Relative Volatility CyP/MTBE [1]: 1.6; Relative Volatility Pnt/MTBE [1]: 1.5 |
| CC(O)COc1ccccc1 (stereo not shown) [Propylene glycol phenyl ether] | 2.0 | 4.2 | Relative Volatility [2, 7]: 3.2 |
| O=S1(=O)CCCC1 [Sulfolane] | 3.6 | 2.4 | Relative Volatility [3]: 3.6; Relative Volatility [2]: 4.4 |
| CC(=O)OCC(COC(C)=O)OC(C)=O [Triacetin] | 1.9 | 3.6 | – |
| CCCCCCOC=O [n-Hexyl formate] | 1.6 | 1.6 | – |
| CCCCC [n-Pentane] | – | – | Relative Volatility [4]: 1.6; Relative Volatility ([4]; listed as n-pentane): less than 1.7 |
| CCCOC(C)=O [n-Propyl acetate] | 1.8 | 2.6 | – |
| CC(C)(C)O [t-Butanol] | – | – | Relative Volatility [3]: 2.2 |
